≈ marks a conversion by molar mass, not a printed value.
What was measured:
[1] = test system: Plasmodium falciparum; test: Antimalarial activity against chloroquine-sensitive Plasmodium falciparum D10 infected in human type A-positive red blood cells assessed as parasite growth inhibition after 72 hrs by lactate dehydrogenase assay; type: functional, organism-based; conditions: D10, 72 h
[2] = test system: Plasmodium falciparum; test: Antimalarial activity against chloroquine-resistant Plasmodium falciparum W2 infected in human type A-positive red blood cells assessed as parasite growth inhibition after 72 hrs by lactate dehydrogenase assay; type: functional, organism-based; conditions: W2, 72 h
[3] = Inhibition of hemin crystallization at 0.25 to 10 mol equiv after 18 hrs by spectrophotometric analysis; type: physicochemical

SMILES | IC50 [1] | IC50 [2] | inhibition (INH) [3]
CCCCCCCOC[C@H]1O[C@H](OO)C[C@@H](OCCCCCCC)[C@H]1OCCCCCCC | > 5 µg/mL | > 5 µg/mL | Not Active
CCCCCCCCCCCCOC[C@H]1O[C@H](OO)C[C@@H](OCCCCCCCCCCCC)[C@H]1OCCCCCCCCCCCC | > 5 µg/mL | > 5 µg/mL | Not Active
CCCCCCCCCCCCCCCCCCOC[C@H]1O[C@H](OO)C[C@@H](OCCCCCCCCCCCCCCCCCC)[C@H]1OCCCCCCCCCCCCCCCCCC | > 5 µg/mL | > 5 µg/mL | Not Active
CCCCCCCO[C@H]1C[C@@H](OO)OC[C@H]1OCCCCCCC | 1.42 µg/mL (≈ 4.09 µM) | 1.69 µg/mL (≈ 4.88 µM) | Active
CCCCCCCCCCCCCCCCCC(=O)O[C@@H]1C[C@@H](OO)O[C@H]1[C@@H](O)CO | > 5 µg/mL | > 5 µg/mL | Not Active
C[C@@H]1CC[C@H]2[C@@H](C)C(=O)O[C@@H]3O[C@@]4(C)CC[C@@H]1[C@]32OO4 [ARTEMISININ] | 0.0121 µg/mL (≈ 0.043 µM) | 0.00824 µg/mL (≈ 0.0292 µM) | 
CCN(CC)CCCC(C)Nc1ccnc2cc(Cl)ccc12 (stereo not drawn) [CHLOROQUINE] |  |  | Active

— ChEMBL document CHEMBL3585275, “Glycosyl hydroperoxides: a new class of potential antimalarial agents” (Bioorg Med Chem, 2015)
